One data set concerns the target T1, p38 MAPKγ (MAPK12) (Homo sapiens, UniProt P53778).
T1 construct: purchased Invitrogen
T1 sequence (P53778 1-367): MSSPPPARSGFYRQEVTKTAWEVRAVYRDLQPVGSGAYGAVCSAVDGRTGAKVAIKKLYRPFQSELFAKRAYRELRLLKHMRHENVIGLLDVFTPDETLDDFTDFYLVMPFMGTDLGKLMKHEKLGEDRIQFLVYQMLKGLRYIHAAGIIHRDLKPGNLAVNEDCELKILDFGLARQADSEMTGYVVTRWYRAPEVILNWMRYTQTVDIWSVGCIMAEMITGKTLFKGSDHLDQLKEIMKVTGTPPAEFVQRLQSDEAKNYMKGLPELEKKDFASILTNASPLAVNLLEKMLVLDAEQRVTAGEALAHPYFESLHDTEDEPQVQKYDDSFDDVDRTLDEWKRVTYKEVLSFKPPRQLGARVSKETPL
The data set is described as follows: Enzyme inhibition assay (FRET, Z-LYTE), p38 MAPKγ. The settings on record: read-out: Enzyme Inhibition IC50 p38γ. The data set is classed as biochemical. In outline: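 Recombinant phosphorylated p38 MAPKγ preincubated 2 h at RT with compound in HEPES buffer, then 2 μM FRET peptide and 100 μM ATP added for 1 h; protease development 1 h. Coumarin/fluorescein emission ratio gave phosphorylation; IC50 from concentration-response versus uninhibited control.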

Data set [1] relates to TNFα release in d-U937 cells. The data set can be described thus: LPS-induced TNFα release in d-U937 cells. The data set is classed as cell-based, human. The note with it: Homo sapiens, dU937, relative to 10 μg/mL BIRB796, read-out: LPS/TNFα REC50 d-U937. The procedure, abridged: (§1)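 PMA-differentiated (100 ng/ml, 48–72 hr) U937 macrophage-type cells pre-incubated 2 hr with compound, then stimulated 4 hr with 0.1 μg/mL E. coli O111:B4 LPS; supernatant TNFα and IL-8 measured by sandwich ELISA. TNFα inhibition expressed relative to 10 μg/mL BIRB796, giving REC50; IL-8 inhibition versus vehicle, giving IC50.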

Data set [2] concerns the target T2, p38 MAPKα isoform (MAPK14) (Homo sapiens, UniProt Q16539).
T2 construct: purchased Invitrogen
The data set is described as follows: Enzyme inhibition assay (FRET, Z-LYTE), p38 MAPKα via MAPKAP-K2 activation. The data set is classed as biochemical. The settings on record: read-out: Enzyme Inhibition IC50 p38α. In outline: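 Recombinant p38 MAPKα was preincubated with compound for 2 h at RT. Its activity was measured indirectly through activation/phosphorylation of downstream MAPKAP-K2, with a Z-LYTE FRET peptide read-out (coumarin/fluorescein ratio) after a 1 h development step. IC50 came from concentration-response curves of percent inhibition versus an uninhibited control.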

Data set [3] deals with Differentiated U937 cells. The data set is described as follows: Cell viability MTT assay. The note with it: negative = apparent increase in viability; for MTT Assay (Viability) 4 h d-U937, percentage loss of cell viability: 4 hr in 5% FCS; for MTT Assay (Viability) 24 h d-U937, percentage loss of cell viability: 24 h in 10% FCS. Format: cell-based, human. The procedure, abridged: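 Differentiated U937 cells pre-incubated with compound either 4 hr in 5% FCS or 24 h in 10% FCS, then 1 hr MTT. Formazan dissolved in DMSO, absorbance at 550 nm. Percentage viability loss relative to 0.5% DMSO vehicle; apparent increases appear as negative percentages.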
For orientation: Tetrazolium dyes change colour on reduction, which living cells bring about.

Data set [4] relates to IL-8 release in d-U937 cells. The data set is described as follows: LPS-induced IL-8 release in d-U937 cells. Format: cell-based, human. The note with it: Homo sapiens, dU937. In outline: as §1
Data set [5] relates to TNFα release in THP-1 cells. The data set can be described thus: LPS-induced TNFα release in THP-1 cells. The data set is classed as cell-based, human. The note with it: Homo sapiens. The procedure, abridged:
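Human monocytic THP-1 cells stimulated with 3 μg/mL E. coli LPS for 4 hr; supernatant TNFα measured by sandwich ELISA. Inhibition at each concentration versus vehicle control, IC50 from concentration-response curve.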

The test system of data set [6] is ICAM-1 induction in BEAS2B cells. The data set can be described thus: Poly I:C-induced ICAM-1 induction in BEAS2B cells. The data set is classed as cell-based, human. The settings on record: Homo sapiens, BEAS-2B, read-out: PolyIC/ICAM1 IC50 BEAS2B. The procedure, abridged:
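Human bronchial epithelial BEAS2B cells were pre-incubated with compound for 2 hr, then transfected with 1 μg/mL poly I:C. After 18 hr, surface ICAM-1 was measured by cell-based ELISA (OD450-655) and normalized to crystal violet cell counts (OD595). IC50 came from inhibition versus vehicle across the concentration-response curve.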

T2 sequence (Q16539 whole entry, canonical isoform): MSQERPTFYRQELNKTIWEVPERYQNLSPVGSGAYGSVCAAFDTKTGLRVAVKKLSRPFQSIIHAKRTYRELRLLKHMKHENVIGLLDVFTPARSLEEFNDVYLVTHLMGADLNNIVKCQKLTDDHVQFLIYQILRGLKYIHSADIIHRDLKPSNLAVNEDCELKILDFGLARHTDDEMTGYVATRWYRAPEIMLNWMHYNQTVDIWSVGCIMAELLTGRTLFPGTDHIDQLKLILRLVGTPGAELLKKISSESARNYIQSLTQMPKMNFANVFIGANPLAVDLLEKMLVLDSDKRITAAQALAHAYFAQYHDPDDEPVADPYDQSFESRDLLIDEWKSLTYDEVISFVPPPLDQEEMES

As for `COCC(=O)Nc1cc(Oc2ccc(NC(=O)Nc3cc(C(C)(C)C)nn3-c3ccc(C)cc3)c(Cl)c2C(F)(F)F)ccn1` [Example 37, N-(4-(4-(3-(3-tert-butyl-1-p-tolyl-1H-pyrazol-5-yl)ureido)-3-chloro-2-trifluoromethylphenoxy)pyridin-2-yl)-2-methoxyacetamide], the IC50 on p38 MAPKγ (MAPK12) was 159 nM; in data set [2], 102 nM; in data set [4], 6.9 nM; in data set [5], 1.8 nM; in data set [6], 4 nM. Moreover, in data set [1], the EC50 is 1.9 nM. In addition, the “MTT Assay (Viability) 4 h d-U937, percentage loss of cell viability” value in data set [3] is −0.4%. In addition, in data set [3], the “MTT Assay (Viability) 24 h d-U937, percentage loss of cell viability” value was determined as 24.7%.

Turning to `COCC(=O)Nc1cc(Oc2cc(Cl)c(NC(=O)Nc3cc(C(C)(C)C)nn3-c3ccc(C)cc3)cc2F)ccn1` [Example 38, N-(4-(4-(3-(3-tert-butyl-1-p-tolyl-1H-pyrazol-5-yl)ureido)-5-chloro-2-fluorophenoxy)pyridin-2-yl)-2-methoxyacetamide], the IC50 amounted to 35.9 nM at p38 MAPKγ (MAPK12); 63 nM in data set [2]; 160 nM in data set [4]; 3.7 nM in data set [5]; 24.8 nM in data set [6]. Also, in data set [1], the EC50 turned out to be 54.1 nM. Moreover, the “MTT Assay (Viability) 4 h d-U937, percentage loss of cell viability” value in data set [3] was 0.6%. The “MTT Assay (Viability) 24 h d-U937, percentage loss of cell viability” value in data set [3] was found to be 64.1%.

With `COCC(=O)Nc1cc(Oc2cc(Cl)c(NC(=O)Nc3cc(C(C)(C)C)nn3-c3ccc(C)cc3)cc2Cl)ccn1` [Example 39, N-(4-(4-(3-(3-tert-butyl-1-p-tolyl-1H-pyrazol-5-yl)ureido)-2,5-dichlorophenoxy)pyridin-2-yl)-2-methoxyacetamide], the IC50 was 3470 nM at p38 MAPKγ (MAPK12); 11.5 nM in data set [2]; 108 nM in data set [4]; 9.6 nM in data set [5]; 109 nM in data set [6]. In data set [1], the EC50 was found to be 27 nM. The “MTT Assay (Viability) 4 h d-U937, percentage loss of cell viability” value in data set [3] was determined as 6.5%. Further, the “MTT Assay (Viability) 24 h d-U937, percentage loss of cell viability” value in data set [3] is listed as −3.0%.

As for `COCC(=O)Nc1cc(Oc2ccc(NC(=O)Nc3cc(C(C)(C)C)nn3-c3ccc(C)cc3)c3ncccc23)ccn1` [Example 40, N-(4-(8-(3-(3-tert-butyl-1-p-tolyl-1H-pyrazol-5-yl)ureido)quinolin-5-yloxy)pyridin-2-yl)-2-methoxyacetamide], the IC50 on p38 MAPKγ (MAPK12) worked out at 189 nM; in data set [2], 0.3 nM; in data set [4], 2 nM; in data set [5], 0.7 nM; in data set [6] it was 16.6 nM. In addition, the EC50 in data set [1] stood at 1.6 nM. Moreover, in data set [3], the “MTT Assay (Viability) 4 h d-U937, percentage loss of cell viability” value is listed as −10.7%. Moreover, the “MTT Assay (Viability) 24 h d-U937, percentage loss of cell viability” value in data set [3] is given as 28.4%.

In the case of `COCC(=O)Nc1cc(Oc2ccc(NC(=O)Nc3cc(C(C)(C)C)nn3-c3ccc(O)cc3)c(Cl)c2Cl)ccn1` [Example 41, N-(4-(4-(3-(3-tert-butyl-1-(4-hydroxyphenyl)-1H-pyrazol-5-yl)ureido)-2,3-dichlorophenoxy)pyridin-2-yl)-2-methoxyacetamide], the IC50 came out at 46.5 nM on p38 MAPKγ (MAPK12); 54.9 nM in data set [2]; 1.6 nM in data set [4]; 0.3 nM in data set [5]; 1.4 nM in data set [6]. Besides, in data set [1], the EC50 was determined as 0.2 nM. Moreover, the “MTT Assay (Viability) 4 h d-U937, percentage loss of cell viability” value in data set [3] is on record as −24.0%. Further, the “MTT Assay (Viability) 24 h d-U937, percentage loss of cell viability” value in data set [3] worked out at 76.5%.

Consider `CNCC(=O)Nc1cc(Oc2ccc(NC(=O)Nc3cc(C(C)(C)C)nn3-c3ccc(OC)cc3)c(Cl)c2Cl)ccn1` [Example 42, N-(4-(4-(3-(3-tert-butyl-1-(4-methoxyphenyl)-1H-pyrazol-5-yl)ureido)-2,3-dichlorophenoxy)pyridin-2-yl)-2-(methylamino)acetamide], for which the IC50 stood at 28 nM on p38 MAPKγ (MAPK12); 14.6 nM in data set [2]; 1.1 nM in data set [4]; 0.7 nM in data set [5]; 3.1 nM in data set [6]. For the same compound, in data set [1], the EC50 is 1.3 nM. In data set [3], the “MTT Assay (Viability) 4 h d-U937, percentage loss of cell viability” value was −4.4%. The “MTT Assay (Viability) 24 h d-U937, percentage loss of cell viability” value in data set [3] was 67.9%.

For `COc1ccc(-n2nc(C(C)(C)C)cc2NC(=O)Nc2ccc(Oc3ccnc(NC(=O)CN(C)C)c3)c(Cl)c2Cl)cc1` [Example 43, N-(4-(4-(3-(3-tert-butyl-1-(4-methoxyphenyl)-1H-pyrazol-5-yl)ureido)-2,3-dichlorophenoxy)pyridin-2-yl)-2-(dimethylamino)acetamide], the IC50 was 78.1 nM on p38 MAPKγ (MAPK12); 27.5 nM in data set [2]; 1.3 nM in data set [4]; 0.4 nM in data set [5]; 2.3 nM in data set [6]. In data set [1], the EC50 came out at 0.9 nM. In addition, the “MTT Assay (Viability) 4 h d-U937, percentage loss of cell viability” value in data set [3] was −18.7%. The “MTT Assay (Viability) 24 h d-U937, percentage loss of cell viability” value in data set [3] came out at 79.1%.

For `COCC(=O)Nc1cc(Oc2ccc(NC(=O)Nc3cc(C(C)(C)C)nn3-c3ccc(OC)cc3)c(Cl)c2Cl)ccn1` [Example 44, N-(4-(4-(3-(3-tert-butyl-1-(4-methoxyphenyl)-1H-pyrazol-5-yl)ureido)-2,3-dichlorophenoxy)pyridin-2-yl)-2-methoxyacetamide], the IC50 worked out at 48.4 nM on p38 MAPKγ (MAPK12); 7.9 nM in data set [2]; 20.7 nM in data set [4]; 1.8 nM in data set [5]; 0.9 nM in data set [6]. In addition, in data set [1], the EC50 was found to be 2.2 nM. Also, in data set [3], the “MTT Assay (Viability) 4 h d-U937, percentage loss of cell viability” value is recorded as −25.9%. In addition, the “MTT Assay (Viability) 24 h d-U937, percentage loss of cell viability” value in data set [3] came out at 87.1%.

`COc1ccc(-n2nc(C(C)(C)C)cc2NC(=O)Nc2ccc(Oc3ccnc(NC(=O)CN4CCOCC4)c3)c(Cl)c2Cl)cc1` [Example 45, N-(4-(4-(3-(3-tert-butyl-1-(4-methoxyphenyl)-1H-pyrazol-5-yl)ureido)-2,3-dichlorophenoxy)pyridin-2-yl)-2-morpholinoacetamide]: the IC50 on p38 MAPKγ (MAPK12) was determined as 84.7 nM; in data set [2], 27.4 nM; in data set [4], 1 nM; in data set [5] it was 0.8 nM; in data set [6] it was 9 nM. Besides, the EC50 in data set [1] was 0.7 nM. For the same compound, the “MTT Assay (Viability) 4 h d-U937, percentage loss of cell viability” value in data set [3] is given as −4.8%. For the same compound, the “MTT Assay (Viability) 24 h d-U937, percentage loss of cell viability” value in data set [3] came to 56.2%.

With `CN(C)CC(=O)Nc1cc(Oc2ccc(NC(=O)Nc3cc(C(C)(C)C)nn3-c3ccc(CO)cc3)c(Cl)c2Cl)ccn1` [Example 46, N-(4-(4-(3-(3-tert-butyl-1-(4-hydroxymethylphenyl)-1H-pyrazol-5-yl)ureido)-2,3-dichlorophenoxy)pyridin-2-yl)-2-(dimethylamino) acetamide], the IC50 came out at 38.7 nM at p38 MAPKγ (MAPK12); 20.9 nM in data set [2]; 1.1 nM in data set [4]; 0.3 nM in data set [5]; 2.4 nM in data set [6]. For the same compound, the EC50 in data set [1] is 0.9 nM. In data set [3], the “MTT Assay (Viability) 4 h d-U937, percentage loss of cell viability” value was −12.6%. Further, the “MTT Assay (Viability) 24 h d-U937, percentage loss of cell viability” value in data set [3] was determined as 82.7%.

For the compound `CN(C)CCCC(=O)Nc1cc(Oc2ccc(NC(=O)Nc3cc(C(C)(C)C)nn3-c3ccc(CO)cc3)c(Cl)c2Cl)ccn1` [Example 47, N-(4-(4-(3-(3-tert-butyl-1-(4-hydroxymethylphenyl)-1H-pyrazol-5-yl)ureido)-2,3-dichlorophenoxy)pyridin-2-yl)-4-(dimethylamino) butanamide], the IC50 was 5.9 nM at p38 MAPKγ (MAPK12); 2.2 nM in data set [2]; 8.2 nM in data set [4]; 0.5 nM in data set [5]; 6.4 nM in data set [6]. In data set [1], the EC50 was found to be 1.6 nM. For the same compound, the “MTT Assay (Viability) 4 h d-U937, percentage loss of cell viability” value in data set [3] is reported as −42.5%. The “MTT Assay (Viability) 24 h d-U937, percentage loss of cell viability” value in data set [3] was 85.0%.

The record behind these values is patent publication US10000471B2, “Pyrazole P38 map kinase inhibitors” (Respivert Limited, priority 2010, dated 2018).
